Source: patent US10933057B2 (priority 2017, dated 2021)

System: patients
Design: species or system human
Conditions: in vivo

SMILES: CCCCC(C)(O)C/C=C/[C@H]1[C@H](O)CC(=O)[C@@H]1CCCCCCC(=O)OC (mixture of isomers) [Misoprostol]
- Pain (No pain −, Pain +): +
